{"source": "the supplement of paper PMC11997997", "key": {"[1]": {"tested_on": "murine bone marrow-derived macrophages", "test": "area under cytotoxicity dose-response curve (AUC (% cytotoxicity x dose, relative)); higher = more cytotoxic", "conditions": "duration: 6 days; dose range: 0.13-80 uM, 8 points", "summary_of_the_method": "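Cytotoxicity is expressed as the area under the dose–response curve from GraphPad Prism version 10. To obtain it, primary murine bone marrow-derived macrophages were incubated for 6 days at 37 °C in 5% CO2 across final concentrations of 80–0.13 μM. Viability came from CellTiter-Glo luminescence, and percent cytotoxicity was normalised to vehicle and positive control wells.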"}, "[2]": {"tested_on": "Mycobacterium tuberculosis CDC1551 (intracellular, in murine BMDM)", "test": "area under intracellular growth-inhibition dose-response curve (AUC (% inhibition x dose, relative)); higher = more potent", "conditions": "duration: 6 days; dose range: 0.13-80 uM, 8 points", "summary_of_the_method": "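In 384-well opaque plates, primary murine bone marrow-derived macrophages were infected with luciferase-expressing M. tuberculosis CDC1551 (multiplicity of infection 1, 1 h) 24 h after seeding, then treated for 6 days across final concentrations of 80–0.13 μM. Growth was measured by Bright-Glo luciferin assay, normalised to a reference drug control and the lowest-concentration wells. The reported value is the area under the growth-inhibition dose–response curve from GraphPad Prism.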"}}, "data": [{"compound": "CCn1c(-c2cccs2)nc2ccccc21", "values": [{"measurement": "area under cytotoxicity dose-response curve", "setting": "[1]", "value": 69.6}, {"measurement": "area under intracellular growth-inhibition dose-response curve", "setting": "[2]", "value": 194}]}, {"compound": "CCCNC(=O)OCC12CC3CC(CC(C3)C1)C2", "values": [{"measurement": "area under cytotoxicity dose-response curve", "setting": "[1]", "value": 228}, {"measurement": "area under intracellular growth-inhibition dose-response curve", "setting": "[2]", "value": 237}]}, {"compound": "[O-][n+]1onc2c3cc(-c4ccccc4)[nH]c3ccc21", "values": [{"measurement": "area under cytotoxicity dose-response curve", "setting": "[1]", "value": 40.6}, {"measurement": "area under intracellular growth-inhibition dose-response curve", "setting": "[2]", "value": 74.3}]}, {"compound": "Cn1c(COc2ccc(Cl)cc2)nnc1SCC(=O)NC1CC1", "values": [{"measurement": "area under cytotoxicity dose-response curve", "setting": "[1]", "value": 96}, {"measurement": "area under intracellular growth-inhibition dose-response curve", "setting": "[2]", "value": 24.4}]}, {"compound": "O=C(Nc1ccc(S(=O)(=O)Nc2nccs2)cc1)C(F)(F)F", "values": [{"measurement": "area under cytotoxicity dose-response curve", "setting": "[1]", "value": 30}, {"measurement": "area under intracellular growth-inhibition dose-response curve", "setting": "[2]", "value": 159}]}, {"compound": "CN(C)[C@@H]1C(=O)C(C(N)=O)=C(O)[C@@]2(O)C(=O)C3=C(O)c4c(O)ccc(Cl)c4[C@@H](O)[C@H]3C[C@@H]12.Cl", "values": [{"measurement": "area under cytotoxicity dose-response curve", "setting": "[1]", "value": "< 0"}, {"measurement": "area under intracellular growth-inhibition dose-response curve", "setting": "[2]", "value": 253}]}, {"compound": "CCOC(=O)c1ccc(NC(=O)c2cc3c(s2)CCC3)cc1", "values": [{"measurement": "area under cytotoxicity dose-response curve", "setting": "[1]", "value": 11.2}, {"measurement": "area under intracellular growth-inhibition dose-response curve", "setting": "[2]", "value": 234}]}, {"compound": "Cc1cccc(-c2nsc(SCC(=O)N3CCCC3)n2)c1", "values": [{"measurement": "area under cytotoxicity dose-response curve", "setting": "[1]", "value": 98}, {"measurement": "area under intracellular growth-inhibition dose-response curve", "setting": "[2]", "value": 224}]}, {"compound": "CCn1nc(C(=O)Nc2cccc(S(=O)(=O)N3CCCC3)c2)c2ccccc2c1=O", "values": [{"measurement": "area under cytotoxicity dose-response curve", "setting": "[1]", "value": 101}, {"measurement": "area under intracellular growth-inhibition dose-response curve", "setting": "[2]", "value": 55.2}]}, {"compound": "CCC(=O)NC(=S)Nc1ccc(NC(=O)c2ccccc2[N+](=O)[O-])cc1", "values": [{"measurement": "area under cytotoxicity dose-response curve", "setting": "[1]", "value": 32.7}, {"measurement": "area under intracellular growth-inhibition dose-response curve", "setting": "[2]", "value": 267}]}, {"compound": "CC[C@H]1OC(=O)[C@H](C)[C@@H](O[C@H]2C[C@@](C)(OC)[C@@H](O)[C@H](C)O2)[C@H](C)[C@@H](O[C@@H]2O[C@H](C)C[C@H](N(C)C)[C@H]2O)[C@](C)(OC)C[C@@H](C)C(=O)[C@H](C)[C@@H](O)[C@]1(C)O", "values": [{"measurement": "area under cytotoxicity dose-response curve", "setting": "[1]", "value": 48.5}, {"measurement": "area under intracellular growth-inhibition dose-response curve", "setting": "[2]", "value": 246}]}, {"compound": "O=C(/C=C/c1cccs1)N1CCCC1", "values": [{"measurement": "area under cytotoxicity dose-response curve", "setting": "[1]", "value": 3.62}, {"measurement": "area under intracellular growth-inhibition dose-response curve", "setting": "[2]", "value": 168}]}, {"compound": "CN(C)S(=O)(=O)c1ccc(C(=O)OCC(=O)NC(=O)NC2CCCC2)cc1", "values": [{"measurement": "area under cytotoxicity dose-response curve", "setting": "[1]", "value": "< 0"}, {"measurement": "area under intracellular growth-inhibition dose-response curve", "setting": "[2]", "value": 165}]}, {"compound": "CCO.C[C@H]1c2cccc(O)c2C(=O)C2=C(O)[C@]3(O)C(O)=C(C(N)=O)C(=O)[C@@H](N(C)C)C3[C@@H](O)C21.Cl.O", "note": "(stereo partly drawn)", "values": [{"measurement": "area under cytotoxicity dose-response curve", "setting": "[1]", "value": 81.3}, {"measurement": "area under intracellular growth-inhibition dose-response curve", "setting": "[2]", "value": 242}]}, {"compound": "CCN1/C(=C/c2ccc3cc(C)ccc3[n+]2C)Sc2ccc3sccc3c21.[I-]", "values": [{"measurement": "area under cytotoxicity dose-response curve", "setting": "[1]", "value": 180}, {"measurement": "area under intracellular growth-inhibition dose-response curve", "setting": "[2]", "value": 149}]}, {"compound": "COc1ccc(C/C(C)=N/NC(=O)c2ccncc2)cc1", "values": [{"measurement": "area under cytotoxicity dose-response curve", "setting": "[1]", "value": 40.9}, {"measurement": "area under intracellular growth-inhibition dose-response curve", "setting": "[2]", "value": 261}]}, {"compound": "CCOc1ccc(C(=O)Nc2ccc(NC(=S)NC(=O)CC)cc2)cc1Cl", "values": [{"measurement": "area under cytotoxicity dose-response curve", "setting": "[1]", "value": "< 0"}, {"measurement": "area under intracellular growth-inhibition dose-response curve", "setting": "[2]", "value": 179}]}, {"compound": "O=C(NC(=S)Nc1ccc(-c2nc3ncccc3o2)cc1)c1ccccc1F", "values": [{"measurement": "area under cytotoxicity dose-response curve", "setting": "[1]", "value": "< 0"}, {"measurement": "area under intracellular growth-inhibition dose-response curve", "setting": "[2]", "value": 138}]}, {"compound": "O=C(N/N=C/c1ccc([N+](=O)[O-])o1)C(O)c1ccccc1", "note": "(stereo not drawn)", "values": [{"measurement": "area under cytotoxicity dose-response curve", "setting": "[1]", "value": 72.7}, {"measurement": "area under intracellular growth-inhibition dose-response curve", "setting": "[2]", "value": 123}]}]}
